Measured values reported in PubChem BioAssay (NCI).
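Each compound was tested at five concentrations against cells in 96-well plates for 48 hours. TGI: concentration producing complete growth inhibition.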

How the values were obtained:
Assay in all cases: NCI anticancer screen, dose series, 48 h
NCI-H226 lung = test system: NCI-H226 lung
NCI-H23 lung = test system: NCI-H23 lung
786-0 renal = test system: 786-0 renal
K-562 leukemia = test system: K-562 leukemia
SK-MEL-28 melanoma = test system: SK-MEL-28 melanoma
SK-OV-3 ovarian = test system: SK-OV-3 ovarian
SR leukemia = test system: SR leukemia
UACC-62 melanoma = test system: UACC-62 melanoma
DU-145 prostate = test system: DU-145 prostate
SF-539 CNS = test system: SF-539 CNS
RPMI-8226 leukemia = test system: RPMI-8226 leukemia
SK-MEL-5 melanoma = test system: SK-MEL-5 melanoma
SK-MEL-2 melanoma = test system: SK-MEL-2 melanoma
MCF7 breast = test system: MCF7 breast
MALME-3M melanoma = test system: MALME-3M melanoma
OVCAR-5 ovarian = test system: OVCAR-5 ovarian
SNB-75 CNS = test system: SNB-75 CNS
SF-295 CNS = test system: SF-295 CNS
CAKI-1 renal = test system: CAKI-1 renal
MDA-MB-231 breast = test system: MDA-MB-231 breast
SF-268 CNS = test system: SF-268 CNS
UO-31 renal = test system: UO-31 renal
CCRF-CEM leukemia = test system: CCRF-CEM leukemia
HL-60(TB) leukemia = test system: HL-60(TB) leukemia
OVCAR-4 ovarian = test system: OVCAR-4 ovarian
MDA-MB-435 = test system: MDA-MB-435
KM12 colon = test system: KM12 colon
ACHN renal = test system: ACHN renal
SNB-19 CNS = test system: SNB-19 CNS
HS 578T breast = test system: HS 578T breast
COLO 205 colon = test system: COLO 205 colon
NCI/ADR-RES ovarian = test system: NCI/ADR-RES ovarian
M14 melanoma = test system: M14 melanoma
SN12C renal = test system: SN12C renal
LOX IMVI melanoma = test system: LOX IMVI melanoma
PC-3 prostate = test system: PC-3 prostate
A498 renal = test system: A498 renal
EKVX NSCLC = test system: EKVX NSCLC
UACC-257 melanoma = test system: UACC-257 melanoma
TK-10 renal = test system: TK-10 renal
HCC-2998 colon = test system: HCC-2998 colon
OVCAR-3 ovarian = test system: OVCAR-3 ovarian
HT29 colon = test system: HT29 colon
HOP-62 NSCLC = test system: HOP-62 NSCLC
RXF 393 renal = test system: RXF 393 renal
HCT-15 colon = test system: HCT-15 colon
MOLT-4 leukemia = test system: MOLT-4 leukemia
U251 CNS = test system: U251 CNS
NCI-H460 lung = test system: NCI-H460 lung
IGROV1 ovarian = test system: IGROV1 ovarian
SW-620 colon = test system: SW-620 colon
BT-549 breast = test system: BT-549 breast
MDA-N = test system: MDA-N
HCT-116 colon = test system: HCT-116 colon
OVCAR-8 ovarian = test system: OVCAR-8 ovarian
T-47D breast = test system: T-47D breast
NCI-H522 lung = test system: NCI-H522 lung
A549 NSCLC = test system: A549 NSCLC
HOP-92 NSCLC = test system: HOP-92 NSCLC

Measured: TGI

Nc1nc(SC/C=C/c2ccccc2)c2[nH]cnc2n1
88.8 µM: HS 578T breast
not listed: HOP-92 NSCLC
> 100 µM: all other assays above

CCCC(=O)Nc1cc2c3c(c1)CCCN3CCC2
not listed: NCI-H226 lung | SK-MEL-2 melanoma | UO-31 renal | A498 renal | EKVX NSCLC | RXF 393 renal | MOLT-4 leukemia | NCI-H460 lung
> 10 µM: all other assays above

O=C(c1ccccc1Br)C(F)(F)F
not listed: SK-MEL-2 melanoma | UACC-257 melanoma | RXF 393 renal | HOP-92 NSCLC
> 100 µM: all other assays above

CC(=O)c1c(C)n([O-])c2cc(Cl)c(Cl)cc2[n+]1=O
61.5 µM: CCRF-CEM leukemia
32.9 µM: UO-31 renal
46.4 µM: LOX IMVI melanoma
95.4 µM: K-562 leukemia
57.8 µM: HCC-2998 colon
54.4 µM: SK-OV-3 ovarian
69.7 µM: MDA-MB-435
56.2 µM: A549 NSCLC
30.1 µM: COLO 205 colon
56 µM: NCI-H460 lung
26.4 µM: SK-MEL-5 melanoma | MALME-3M melanoma
25.4 µM: RPMI-8226 leukemia
86.2 µM: SN12C renal
39.6 µM: HL-60(TB) leukemia
62.7 µM: MDA-MB-231 breast
67.7 µM: ACHN renal
24.4 µM: IGROV1 ovarian
71.3 µM: TK-10 renal
75.1 µM: NCI/ADR-RES ovarian
72.5 µM: SF-539 CNS
90.9 µM: HT29 colon
62.2 µM: SR leukemia
63.8 µM: OVCAR-4 ovarian
27.9 µM: NCI-H522 lung
70.4 µM: A498 renal
58.1 µM: CAKI-1 renal
88.5 µM: OVCAR-3 ovarian
50 µM: UACC-62 melanoma
57.4 µM: UACC-257 melanoma
89.9 µM: OVCAR-8 ovarian
74 µM: HS 578T breast
33.5 µM: KM12 colon
not listed: NCI-H226 lung | SNB-75 CNS | HOP-92 NSCLC
> 100 µM: all other assays above
